Assay results from patent US20250100996A1, “HETEROCYCLOALKYL AND HETEROARYL COMPOUNDS AND PHARMACEUTICAL COMPOSITIONS THAT MODULATE IKZF2” (Plexium, Inc., priority 2021, published 2025).

Tests used:
[1] = target: T1, human E3 ligase component cereblon (CRBN) (Homo sapiens, UniProt Q96SW2); assay: Cereblon (CRBN) target engagement, NanoBRET TE Intracellular E3 Ligase Assay in transfected HEK-293T cells; conditions: read-out: CRBN Binding EC50
T1 construct: host or cells: HEK293T
Procedure, shortened: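 Tracer displacement was read as the 610/450 nm BRET signal after 2 h at 37° C with an 11-point dilution series, typically 10 μM to 100 pM. Live HEK-293T cells expressed NanoLuc fused N-terminal to human CRBN together with DDB1. IC50 was fitted with a four-parameter logistic model.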

[2] = target: T2, IKZF2 (Helios) (Homo sapiens, UniProt Q9UKS7); assay: IKZF2 reporter degradation assay (HEK 293T IKZF2-mNeonGreen reporter cell line); assay type: cell-based; conditions: HEK 293T IKZF2-mNeonGreen reporter, 24 hours incubation
T2 construct: Leu-Asp junction (codons ctcgac before the linker); mScarlet (behind P2A) (C, cleaved yes); expressed in transfected cells
T2 sequence (Q9UKS7 whole entry): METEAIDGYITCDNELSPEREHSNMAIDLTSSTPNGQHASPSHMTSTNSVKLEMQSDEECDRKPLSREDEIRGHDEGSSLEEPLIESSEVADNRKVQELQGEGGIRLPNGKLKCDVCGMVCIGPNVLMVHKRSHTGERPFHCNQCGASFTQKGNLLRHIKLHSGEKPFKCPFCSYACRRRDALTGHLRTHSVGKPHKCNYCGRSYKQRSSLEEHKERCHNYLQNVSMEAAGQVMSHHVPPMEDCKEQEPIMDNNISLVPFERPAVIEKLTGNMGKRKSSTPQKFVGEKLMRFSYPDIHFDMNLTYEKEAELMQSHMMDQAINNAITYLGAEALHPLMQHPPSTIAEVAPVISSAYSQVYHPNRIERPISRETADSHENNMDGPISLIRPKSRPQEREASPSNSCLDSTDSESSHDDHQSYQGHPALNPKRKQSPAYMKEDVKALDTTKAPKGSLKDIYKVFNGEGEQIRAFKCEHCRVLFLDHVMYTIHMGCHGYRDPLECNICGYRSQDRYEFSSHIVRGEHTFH
T2 sequence (Q96SW2 whole entry, further chain): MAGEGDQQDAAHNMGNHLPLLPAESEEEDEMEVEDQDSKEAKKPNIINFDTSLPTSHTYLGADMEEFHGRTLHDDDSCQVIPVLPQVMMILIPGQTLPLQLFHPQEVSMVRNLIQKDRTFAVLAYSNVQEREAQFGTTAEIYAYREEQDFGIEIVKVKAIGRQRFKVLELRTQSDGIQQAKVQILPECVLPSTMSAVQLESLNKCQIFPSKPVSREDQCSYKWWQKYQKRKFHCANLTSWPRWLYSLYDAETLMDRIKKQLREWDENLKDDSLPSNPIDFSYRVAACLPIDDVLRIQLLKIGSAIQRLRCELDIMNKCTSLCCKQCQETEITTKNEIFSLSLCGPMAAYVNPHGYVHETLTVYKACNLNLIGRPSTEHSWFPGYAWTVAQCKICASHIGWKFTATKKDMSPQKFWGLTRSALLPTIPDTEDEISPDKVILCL
T2 sequence (Q16531 whole entry partner): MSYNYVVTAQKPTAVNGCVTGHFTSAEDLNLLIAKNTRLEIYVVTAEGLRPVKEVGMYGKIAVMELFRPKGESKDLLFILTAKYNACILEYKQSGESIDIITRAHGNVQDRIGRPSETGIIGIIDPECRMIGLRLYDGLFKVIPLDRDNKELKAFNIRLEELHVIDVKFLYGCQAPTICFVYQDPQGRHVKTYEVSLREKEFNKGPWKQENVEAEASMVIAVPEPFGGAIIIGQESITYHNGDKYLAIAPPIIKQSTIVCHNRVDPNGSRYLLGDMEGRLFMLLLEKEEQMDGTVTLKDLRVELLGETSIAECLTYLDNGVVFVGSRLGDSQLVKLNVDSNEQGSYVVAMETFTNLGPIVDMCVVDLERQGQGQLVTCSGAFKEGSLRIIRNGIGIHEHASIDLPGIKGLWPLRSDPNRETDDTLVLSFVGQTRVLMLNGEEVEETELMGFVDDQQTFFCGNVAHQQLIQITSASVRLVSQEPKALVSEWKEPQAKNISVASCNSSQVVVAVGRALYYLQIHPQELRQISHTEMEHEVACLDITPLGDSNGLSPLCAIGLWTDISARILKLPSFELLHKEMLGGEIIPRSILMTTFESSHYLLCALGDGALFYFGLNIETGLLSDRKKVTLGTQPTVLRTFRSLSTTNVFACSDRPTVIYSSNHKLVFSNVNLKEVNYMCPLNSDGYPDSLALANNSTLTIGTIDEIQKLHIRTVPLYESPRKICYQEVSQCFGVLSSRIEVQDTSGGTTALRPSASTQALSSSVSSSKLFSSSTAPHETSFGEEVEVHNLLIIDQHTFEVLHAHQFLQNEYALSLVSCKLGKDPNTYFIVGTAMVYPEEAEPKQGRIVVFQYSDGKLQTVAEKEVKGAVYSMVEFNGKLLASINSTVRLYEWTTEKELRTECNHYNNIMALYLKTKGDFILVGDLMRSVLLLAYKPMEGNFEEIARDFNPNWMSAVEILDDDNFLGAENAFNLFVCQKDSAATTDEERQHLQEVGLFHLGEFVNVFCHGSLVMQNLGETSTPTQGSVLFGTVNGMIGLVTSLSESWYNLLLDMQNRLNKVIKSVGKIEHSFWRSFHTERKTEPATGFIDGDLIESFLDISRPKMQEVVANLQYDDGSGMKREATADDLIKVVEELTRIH
Procedure, shortened: (§1)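 Cells were seeded overnight and then dosed with DMSO dilutions of compound. After 24 h, the plates were imaged live in the FITC and TRITC channels. The fraction of reporter-positive cells was plotted and fitted to a four-parameter logistic curve to give DC50.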

[3] = target: T3, IKZF1 (Ikaros) (Homo sapiens, UniProt Q13422); assay: IKZF1 reporter degradation assay (HEK 293T IKZF1-mNeonGreen reporter cell line); assay type: cell-based; conditions: HEK 293T IKZF1-mNeonGreen reporter, 24 hours incubation
T3 construct: mScarlet (behind P2A) (C, cleaved yes); expressed in transfected cells
T3 sequence (Q96SW2 whole entry partner): as the sequence (Q96SW2 whole entry, further chain) above
T3 sequence (Q16531 whole entry partner): as the sequence (Q16531 whole entry partner) above
T3 sequence (Q13422 whole entry): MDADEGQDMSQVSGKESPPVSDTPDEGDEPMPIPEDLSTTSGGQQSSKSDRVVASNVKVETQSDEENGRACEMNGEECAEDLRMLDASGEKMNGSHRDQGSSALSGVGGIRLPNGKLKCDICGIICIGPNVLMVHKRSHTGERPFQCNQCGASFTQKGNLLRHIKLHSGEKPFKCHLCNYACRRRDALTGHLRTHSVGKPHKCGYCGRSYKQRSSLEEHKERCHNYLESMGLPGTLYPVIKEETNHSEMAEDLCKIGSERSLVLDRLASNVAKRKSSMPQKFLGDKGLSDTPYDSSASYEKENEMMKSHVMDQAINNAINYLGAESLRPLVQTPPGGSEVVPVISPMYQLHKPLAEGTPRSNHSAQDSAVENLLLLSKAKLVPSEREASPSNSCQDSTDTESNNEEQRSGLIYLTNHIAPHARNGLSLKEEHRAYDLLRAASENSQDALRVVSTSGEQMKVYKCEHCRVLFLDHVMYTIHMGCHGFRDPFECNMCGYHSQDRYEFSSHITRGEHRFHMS
From the text: Polycistronic plasmids were constructed for the mammalian expression of fluorescent reporter fusions of human transcription factors IKZF1 (Ikaros), IKZF2 (Helios), and IKZF3 (Aiolos). The respective protein sequences had their C-terminal end joined to a GGGGS linker repeated three times followed by mNeonGreen, P2A sequence, and mScarlet. The DNA sequences of the open reading frames are as follows:
IKZF1, IKZF2, and IKZF3 constructs were cloned into the UCOE Hygromycin expression vectors (Millipore Sigma). Reporter constructs were transfected using cationic lipid reagents into adherent HEK 293T cells and stable integrants were selected by treatment with 200 μg/mL hygromycin B. Clonal populations were obtained from the population of stable integrants either by limiting dilution or fluorescence activated cell sorting.
The clonal stable cell lines were maintained under constant 200 μg/mL hygromycin B selection while being passaged for use in the degradation assays. […] The fluorescence intensity of the IKZF1/2/3-mNeonGreen (FITC channel) and mScarlet (PE channel) reporters were routinely analyzed by flow cytometry to confirm consistent expression levels between experiments.
The IKZF1/IKZF2/IKZF3 degradation assays were carried out by harvesting the HEK 293T reporter cell lines and resuspending the cells in media formulated for reduced background fluorescence (FluoroBrite; Thermo Fisher). The respective cell lines were seeded at a density of 4000 cells/well into black-walled 384-well optical grade assay tissue culture plates. The cells were incubated overnight at 37° C. to allow for attachment to the assay plate. Dilutions of the compounds were prepared in DMSO from 10 mM compound stocks. The assay plates were treated with appropriate concentrations of the compounds by dispensing the DMSO dilutions in quadruplicate wells with an upper limit of 0.5% final DMSO.
After 24 hours incubation with the compounds, the assay plates were imaged on an ImageXpress Pico microscopy system (cells maintained at 37° C. during imaging) to obtain the fluorescent readouts. The assay plates were imaged in the FITC and Tetramethylrhodamine (TRITC) channels to obtain the mNeonGreen fluorescence intensity (reporter degradation data) and mScarlet fluorescence intensity (for cell segmentation). 293T-IKZF1 and 293T-IKZF3 reporter cell lines were imaged with exposures of 500 milliseconds (ms) for both FITC and TRITC channels, while the 293T-IKZF2 reporter cell line was imaged with exposures of 1000 ms for FITC and 1250 ms for TRITC. The resulting data was analyzed with Cell Reporter Xpress software using the 2-channel cell scoring analysis with a “percent positive” readout. The TRITC channel was selected for the “nuclei” segmentation with a threshold of 20 while the FITC channel was selected for the “Marker 1” segmentation and a threshold of 100 for the IKZF1 and IKZF3 reporter lines. […] The minimum segmentation width was set to 6 micrometers and the maximum segmentation width was set to 15 micrometers for all cell lines. The DC50 calculations were determined by regression to best fit four-parameter logistic curves using GraphPad Prism.

[4] = target: T4, IKZF3 (Aiolos) (Homo sapiens, UniProt Q9UKT9); assay: IKZF3 reporter degradation assay (HEK 293T IKZF3-mNeonGreen reporter cell line); assay type: cell-based; conditions: HEK 293T IKZF3-mNeonGreen reporter, 24 hours incubation
T4 construct: Leu-Asp junction (codons ctcgac before the linker); mScarlet (behind P2A) (C, cleaved yes); expressed in transfected cells
T4 sequence (Q96SW2 whole entry partner): as the sequence (Q96SW2 whole entry, further chain) above
T4 sequence (Q16531 whole entry partner): as the sequence (Q16531 whole entry partner) above
T4 sequence (Q9UKT9 whole entry): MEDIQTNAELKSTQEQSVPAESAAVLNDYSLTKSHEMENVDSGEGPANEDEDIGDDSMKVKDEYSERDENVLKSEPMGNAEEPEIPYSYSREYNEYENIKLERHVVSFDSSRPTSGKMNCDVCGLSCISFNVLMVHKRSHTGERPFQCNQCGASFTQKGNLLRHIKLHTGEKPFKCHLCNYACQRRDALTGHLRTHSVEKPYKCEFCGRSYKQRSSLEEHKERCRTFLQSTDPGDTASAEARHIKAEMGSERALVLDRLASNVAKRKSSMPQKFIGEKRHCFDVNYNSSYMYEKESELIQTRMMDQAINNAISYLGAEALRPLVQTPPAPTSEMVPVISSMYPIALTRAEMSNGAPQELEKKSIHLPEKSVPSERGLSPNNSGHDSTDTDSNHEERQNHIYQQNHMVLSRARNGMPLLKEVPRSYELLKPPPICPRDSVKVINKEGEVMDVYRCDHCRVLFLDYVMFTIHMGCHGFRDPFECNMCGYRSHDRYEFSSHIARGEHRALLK
Procedure, shortened: as §1

T1 sequence (Q96SW2 whole entry): as the sequence (Q96SW2 whole entry, further chain) above
T1 sequence (Q16531 whole entry partner): as the sequence (Q16531 whole entry partner) above

Row | SMILES | EC50 [1] [µM] | DC50 [2] [µM] | DC50 [3] [µM] | DC50 [4] [µM]
1 | O=C1CCC(N2Cc3cc(O[C@H]4CCCC[C@@H]4N4CC(c5ccc(C(F)(F)F)nc5)C4)ccc3C2=O)C(=O)N1 (mixture of isomers) [Compound 191-B, Rac-3-(1-oxo-5-(((trans)-2-(3-(6-(trifluoromethyl)pyridin-3-yl)azetidin-1-yl)cyclohexyl)oxy)isoindolin-2-yl)piperidine-2,6-dione] | 0.031 | > 30 | > 30 | > 30
2 | O=C1CCC(N2Cc3cc(OC4CCC[C@@H]4N4CC(c5cncnc5)C4)ccc3C2=O)C(=O)N1 (mixture of isomers) [Compound 197-B, Rac-3-(1-oxo-5-(((trans)-2-(3-(pyrimidin-5-yl)azetidin-1-yl)cyclopentyl)oxy)isoindolin-2-yl)piperidine-2,6-dione] | 0.138 | > 30 | > 30 | > 30
3 | COc1ccc(C2CN([C@H]3CCCC3Oc3ccc4c(c3)CN(C3CCC(=O)NC3=O)C4=O)C2)cn1 (mixture of isomers) [Compound 202-B, Rac-3-(5-(((trans)-2-(3-(6-methoxypyridin-3-yl)azetidin-1-yl)cyclopentyl)oxy)-1-oxoisoindolin-2-yl)piperidine-2,6-dione] | 0.029 | > 30 | > 30 | > 30
4 | O=C1CCC(N2Cc3cc(O[C@H]4CCCC[C@@H]4N4CC(n5ccnc5)C4)ccc3C2=O)C(=O)N1 (stereo partly drawn) [Compound 176-B, 3-(5-(((1S,2S)-2-(3-(1H-imidazol-1-yl)azetidin-1-yl)cyclohexyl)oxy)-1-oxoisoindolin-2-yl)piperidine-2,6-dione] | 0.899 | 2.1 | > 30 | > 30
5 | O=C1CCC(N2Cc3cc(OC4CCCC4N4CC(c5ncc(Cl)cn5)C4)ccc3C2=O)C(=O)N1 (stereo not drawn) [Compound 200-B, 3-(5-((2-(3-(5-chloropyrimidin-2-yl)azetidin-1-yl)cyclopentyl)oxy)-1-oxoisoindolin-2-yl)piperidine-2,6-dione] | 0.02 | > 30 | > 30 | > 30

Further lines, results first:

Row | EC50 [1] [µM] | DC50 [2] [µM] | DC50 [3] [µM] | DC50 [4] [µM] | SMILES
6 | 0.024 | > 30 | > 30 | > 30 | O=C1CCC(N2Cc3cc(O[C@H]4CCCC4N4CC(c5ccnc6ccccc56)C4)ccc3C2=O)C(=O)N1 (mixture of isomers) [Compound 195-B, Rac-3-(1-oxo-5-(((trans)-2-(3-(quinolin-4-yl)azetidin-1-yl)cyclopentyl)oxy)isoindolin-2-yl)piperidine-2,6-dione]
7 | 0.071 | > 30 | > 30 | > 30 | O=C1CCC(N2Cc3cc(OC4CCC[C@@H]4N4CC(c5ccncc5)C4)ccc3C2=O)C(=O)N1 (mixture of isomers) [Compound 206-B, Rac-3-(1-oxo-5-(((trans)-2-(3-(pyridin-4-yl)azetidin-1-yl)cyclopentyl)oxy)isoindolin-2-yl)piperidine-2,6-dione]
8 | 0.076 | > 30 | > 30 | > 30 | O=C1CCC(N2Cc3cc(OC4CCC[C@@H]4N4CC(c5cccnc5)C4)ccc3C2=O)C(=O)N1 (mixture of isomers) [Compound 208-B, Rac-3-(1-oxo-5-(((trans)-2-(3-(pyridin-3-yl)azetidin-1-yl)cyclopentyl)oxy)isoindolin-2-yl)piperidine-2,6-dione]
9 | 0.122 | > 30 | > 30 | > 30 | O=C1CCC(N2Cc3cc(OC4CCC[C@@H]4N4CC(c5ccccn5)C4)ccc3C2=O)C(=O)N1 (mixture of isomers) [Compound 210-B, Rac-3-(1-oxo-5-(((trans)-2-(3-(pyridin-2-yl)azetidin-1-yl)cyclopentyl)oxy)isoindolin-2-yl)piperidine-2,6-dione]
